Measurements published in US9988400B2 (Genentech, Inc., priority 2013, dated 2018).

Target: T1, HEK cells stably transfected with tetracycline inducible hNR1 and hNR2A (Homo sapiens, UniProt Q05586+Q12879)
T1 construct: expressed in transfected cells; host or cells: HEK cells, stably transfected, tetracycline/doxycycline inducible
Test: Assay 1: Cell-Based Assay, cytosolic calcium response to positive allosteric modulators (with 30 μM glycine and 300 nM L-glutamate, EC30)
Conditions: Table 3; cytosolic calcium response, with 30 μM glycine and 300 nM L-glutamate (EC30); — = no plateau was reached
How it was run: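 Cells induced 24 h with 7.5 μg mL^−1 doxycycline plus 500 μM (+)-ketamine, loaded 60 min at 37 °C with calcium dye in Mg-free HBSS (1.8 mM Ca, probenecid, 10 μM (+)-ketamine, pH 7.15). Peak RFU over 5 min after compound addition, scaled to 100 μM L-glutamate (100%) and 0 μM (0%); four-parameter Hill fit for EC50, max % if no plateau.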

T1 sequence (Q12879 23-1464, other chains not shown): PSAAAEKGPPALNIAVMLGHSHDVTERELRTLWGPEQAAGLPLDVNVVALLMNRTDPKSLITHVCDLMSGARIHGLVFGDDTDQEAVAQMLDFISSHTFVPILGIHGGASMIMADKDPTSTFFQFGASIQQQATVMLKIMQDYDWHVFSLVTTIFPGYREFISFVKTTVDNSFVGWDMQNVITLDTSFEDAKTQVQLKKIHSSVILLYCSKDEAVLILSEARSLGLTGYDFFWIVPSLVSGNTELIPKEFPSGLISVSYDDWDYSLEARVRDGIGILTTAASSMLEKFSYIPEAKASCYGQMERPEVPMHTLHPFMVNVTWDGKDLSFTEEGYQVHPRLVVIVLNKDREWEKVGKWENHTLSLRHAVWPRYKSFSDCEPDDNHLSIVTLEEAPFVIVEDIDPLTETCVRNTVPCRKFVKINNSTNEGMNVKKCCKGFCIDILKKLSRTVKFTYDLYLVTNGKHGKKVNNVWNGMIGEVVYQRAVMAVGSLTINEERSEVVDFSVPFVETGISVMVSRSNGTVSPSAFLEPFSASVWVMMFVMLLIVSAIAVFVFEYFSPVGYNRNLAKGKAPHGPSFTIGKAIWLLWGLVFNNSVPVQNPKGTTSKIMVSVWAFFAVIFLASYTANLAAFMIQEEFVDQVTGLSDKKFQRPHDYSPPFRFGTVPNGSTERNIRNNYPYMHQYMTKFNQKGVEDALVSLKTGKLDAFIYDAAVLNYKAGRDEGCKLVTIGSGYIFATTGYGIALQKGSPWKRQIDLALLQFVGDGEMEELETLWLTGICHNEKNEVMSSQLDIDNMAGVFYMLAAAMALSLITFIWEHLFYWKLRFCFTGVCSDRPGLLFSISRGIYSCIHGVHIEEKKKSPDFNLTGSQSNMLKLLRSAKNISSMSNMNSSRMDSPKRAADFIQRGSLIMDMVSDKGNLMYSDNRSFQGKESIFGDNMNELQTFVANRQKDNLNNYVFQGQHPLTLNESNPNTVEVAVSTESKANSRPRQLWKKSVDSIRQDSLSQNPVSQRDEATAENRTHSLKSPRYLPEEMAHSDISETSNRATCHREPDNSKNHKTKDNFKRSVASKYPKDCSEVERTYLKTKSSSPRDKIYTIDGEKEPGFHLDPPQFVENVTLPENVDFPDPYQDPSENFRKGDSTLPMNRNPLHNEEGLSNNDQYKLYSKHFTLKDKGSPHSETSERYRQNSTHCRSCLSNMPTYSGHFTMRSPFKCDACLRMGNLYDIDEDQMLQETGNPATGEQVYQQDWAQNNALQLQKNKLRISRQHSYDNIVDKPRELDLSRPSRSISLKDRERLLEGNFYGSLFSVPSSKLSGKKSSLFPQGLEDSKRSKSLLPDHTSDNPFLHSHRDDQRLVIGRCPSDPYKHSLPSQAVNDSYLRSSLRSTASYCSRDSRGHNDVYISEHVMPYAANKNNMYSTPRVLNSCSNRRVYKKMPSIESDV

| EC50 [µM] | SMILES |
| --- | --- |
| 1.56 | CNC(=O)c1c(C)sc2nc(Cc3cc(C(F)(F)F)ccc3Cl)cc(=O)n12 [compound 14, 7-[[2-chloro-5-(trifluoromethyl)phenyl]methyl]-N,2-dimethyl-5-oxo-thiazolo[3,2-a]pyrimidine-3-carboxamide] |
| 9.02 | Cc1sc2nc(Cc3cccc(C#N)c3F)c(F)c(=O)n2c1C(=O)NCC(F)(F)F [compound 15, 7-[(3-cyano-2-fluoro-phenyl)methyl]-6-fluoro-2-methyl-5-oxo-N-(2,2,2-trifluoroethyl)thiazolo[3,2-a]pyrimidine-3-carboxamide] |
| 15.5 | CNC(=O)c1c(C)sc2nc(Cc3cc(F)c(F)cc3Cl)cc(=O)n12 [compound 16, 7-[(2-chloro-4,5-difluoro-phenyl)methyl]-N,2-dimethyl-5-oxo-thiazolo[3,2-a]pyrimidine-3-carboxamide] |
| 7.04 | CCNC(=O)c1c(C)sc2nc(Cc3cc(F)c(F)cc3CCF)cc(=O)n12 [compound 17, 7-[[4,5-difluoro-2-(2-fluoroethyl)phenyl]methyl]-N-ethyl-2-methyl-5-oxo-thiazolo[3,2-a]pyrimidine-3-carboxamide] |
| 2.25 | CNC(=O)Cc1c(C)sc2nc(Cn3nc(C(F)(F)F)cc3C3CC3)cc(=O)n12 [compound 18, 2-[7-[[5-cyclopropyl-3-(trifluoromethyl)pyrazol-1-yl]methyl]-2-methyl-5-oxo-thiazolo[3,2-a]pyrimidin-3-yl]-N-methyl-acetamide] |
| 5.45 | CNC(=O)Cc1c(C)sc2nc(Cc3cccc(C(F)(F)F)c3F)cc(=O)n12 [compound 19, 2-[7-[[2-fluoro-3-(trifluoromethyl)phenyl]methyl]-2-methyl-5-oxo-thiazolo[3,2-a]pyrimidin-3-yl]-N-methyl-acetamide] |
| 10.2 | CCNC(=O)c1c(C)sc2nc(Cn3nc(C)cc3Cl)cc(=O)n12 [compound 20, 7-[(5-chloro-3-methyl-pyrazol-1-yl)methyl]-N-ethyl-2-methyl-5-oxo-thiazolo[3,2-a]pyrimidine-3-carboxamide] |
| 7.88 | CCNC(=O)c1c(C)sc2nc(Cn3nc(Cl)cc3C)cc(=O)n12 [compound 21, 7-[(3-chloro-5-methyl-pyrazol-1-yl)methyl]-N-ethyl-2-methyl-5-oxo-thiazolo[3,2-a]pyrimidine-3-carboxamide] |
| 4.13 | CCNC(=O)c1c(C)sc2nc(Cn3nc(Cl)cc3C3CC3)cc(=O)n12 [compound 22, 7-[(3-chloro-5-cyclopropyl-pyrazol-1-yl)methyl]-N-ethyl-2-methyl-5-oxo-thiazolo[3,2-a]pyrimidine-3-carboxamide] |
| 3.48 | CCNC(=O)c1c(C)sc2nc(Cn3nc(C4CC4)cc3Cl)cc(=O)n12 [compound 23, 7-[(5-chloro-3-cyclopropyl-pyrazol-1-yl)methyl]-N-ethyl-2-methyl-5-oxo-thiazolo[3,2-a]pyrimidine-3-carboxamide] |
| 1.33 | Cc1sc2nc(Cc3nc(C(F)(F)F)cs3)cc(=O)n2c1C1CC1CO (stereo not drawn) [compound 24, 3-[2-(Hydroxymethyl)cyclopropyl]-2-methyl-7-[[4-(trifluoromethyl)thiazol-2-yl]methyl]thiazolo[3,2-a]pyrimidin-5-one] |
| 0.292 | CCN(Cc1cc(=O)n2c(CC(=O)NC)c(C)sc2n1)c1ccc(F)cc1 [compound 25, 2-[7-[(N-ethyl-4-fluoro-anilino)methyl]-2-methyl-5-oxo-thiazolo[3,2-a]pyrimidin-3-yl]-N-methyl-acetamide] |
| 4.82 | CCNC(=O)c1c(C)sc2nc(Cn3nc(C(F)(F)F)cc3C)cc(=O)n12 [compound 26, N-ethyl-2-methyl-7-[[5-methyl-3-(trifluoromethyl)pyrazol-1-yl]methyl]-5-oxo-thiazolo[3,2-a]pyrimidine-3-carboxamide] |
| 10.6 | CCNC(=O)c1c(C)sc2nc(Cn3nc(C)cc3C(F)(F)F)cc(=O)n12 [compound 27, N-ethyl-2-methyl-7-[[3-methyl-5-(trifluoromethyl)pyrazol-1-yl]methyl]-5-oxo-thiazolo[3,2-a]pyrimidine-3-carboxamide] |
| 0.388 | CCNC(=O)c1c(C)sc2nc(Cn3nc(C(F)(F)F)cc3Cl)cc(=O)n12 [compound 28, 7-[[5-Chloro-3-(trifluoromethyl)-1H-pyrazol-1-yl]methyl]-N-ethyl-2-methyl-5-oxo-5H-[1,3]thiazolo[3,2-a]pyrimidine-3-carboxamide] |
| 1.76 | CCNC(=O)c1c(C)sc2nc(Cn3nc(Cl)cc3C(F)(F)F)cc(=O)n12 [compound 29, 7-[[3-chloro-5-(trifluoromethyl)pyrazol-1-yl]methyl]-N-ethyl-2-methyl-5-oxo-thiazolo[3,2-a]pyrimidine-3-carboxamide] |
| 2.57 | CNC(=O)c1c(C)sc2nc(Cc3cccc(C(F)F)c3F)c(F)c(=O)n12 [compound 30, 7-[[3-(difluoromethyl)-2-fluoro-phenyl]methyl]-6-fluoro-N,2-dimethyl-5-oxo-thiazolo[3,2-a]pyrimidine-3-carboxamide] |

| EC50 [µM] | SMILES |
| --- | --- |
| 4.17 | CCNC(=O)c1c(C)sc2nc(Cc3cccc(C(F)F)c3F)c(F)c(=O)n12 [compound 31, 7-[[3-(difluoromethyl)-2-fluoro-phenyl]methyl]-N-ethyl-6-fluoro-2-methyl-5-oxo-thiazolo[3,2-a]pyrimidine-3-carboxamide] |
| 5.95 | CNC(=O)c1c(C)sc2nc(Cc3ccc4c(c3)CC4)cc(=O)n12 [compound 32, 7-(4-bicyclo[4.2.0]octa-1,3,5-trienylmethyl)-N,2-dimethyl-5-oxo-thiazolo[3,2-a]pyrimidine-3-carboxamide] |
| 6.43 | CCNC(=O)c1c(C)sc2nc(Cc3cccc(C4(O)CC4)c3F)cc(=O)n12 [compound 33, N-ethyl-7-[[2-fluoro-3-(1-hydroxycyclopropyl)phenyl]methyl]-2-methyl-5-oxo-thiazolo[3,2-a]pyrimidine-3-carboxamide] |
| 24.5 | Cc1sc2nc(Oc3cccc(C(F)(F)F)c3)c(F)c(=O)n2c1C1CC1CO (stereo not drawn) [compound 34, 6-fluoro-3-[2-(hydroxymethyl)cyclopropyl]-2-methyl-7-[3-(trifluoromethyl)phenoxy]thiazolo[3,2-a]pyrimidin-5-one] |
| 3.99 | CCNC(=O)c1c(C)sc2nc(Cc3cccc(C4(F)CC4)c3F)cc(=O)n12 [compound 35, N-ethyl-7-[[2-fluoro-3-(1-fluorocyclopropyl)phenyl]methyl]-2-methyl-5-oxo-thiazolo[3,2-a]pyrimidine-3-carboxamide] |
| 1.72 | C=C(CF)c1cccc(Cc2cc(=O)n3c(C(=O)NCC)c(C)sc3n2)c1F [compound 36, N-ethyl-7-[[2-fluoro-3-[1-(fluoromethyl)vinyl]phenyl]methyl]-2-methyl-5-oxo-thiazolo[3,2-a]pyrimidine-3-carboxamide] |
| 9.02 | C#Cc1cc(F)c(F)cc1Cc1cc(=O)n2c(C(=O)NC)c(C)sc2n1 [compound 37, 7-[(2-ethynyl-4,5-difluoro-phenyl)methyl]-N,2-dimethyl-5-oxo-thiazolo[3,2-a]pyrimidine-3-carboxamide] |
| 0.533 | Cc1sc2nc(Cc3cccc(C#N)c3F)cc(=O)n2c1C1CC1C(F)(F)F (stereo not drawn) [compound 38, 2-fluoro-3-[[2-methyl-5-oxo-3-[2-(trifluoromethyl)cyclopropyl]thiazolo[3,2-a]pyrimidin-7-yl]methyl]benzonitrile] |
| 6.1 | Cc1sc2nc(Cc3cccc(C#N)c3F)cc(=O)n2c1C1CC1(F)F (stereo not drawn) [compound 39, 3-[[3-(2,2-Difluorocyclopropyl)-2-methyl-5-oxo-thiazolo[3,2-a]pyrimidin-7-yl]methyl]-2-fluorobenzonitrile] |
| 1.32 | CCNC(=O)c1c(C(F)(F)F)sc2nc(Cc3cccc(C(F)(F)F)c3F)cc(=O)n12 [compound 40, N-ethyl-7-[[2-fluoro-3-(trifluoromethyl)phenyl]methyl]-5-oxo-2-(trifluoromethyl)thiazolo[3,2-a]pyrimidine-3-carboxamide] |
| 4.78 | CCNC(=O)c1c(C(F)(F)F)sc2nc(Cc3cccc(C#N)c3F)cc(=O)n12 [compound 41, 7-[(3-cyano-2-fluoro-phenyl)methyl]-N-ethyl-5-oxo-2-(trifluoromethyl)thiazolo[3,2-a]pyrimidine-3-carboxamide] |
| 1.57 | CCNC(=O)c1c(C(F)(F)F)sc2nc(Cc3cccc(C(F)F)c3F)cc(=O)n12 [compound 42, 7-[[3-(difluoromethyl)-2-fluoro-phenyl]methyl]-N-ethyl-5-oxo-2-(trifluoromethyl)thiazolo[3,2-a]pyrimidine-3-carboxamide] |
| 0.362 | CCNC(=O)c1c(C(F)(F)F)sc2nc(Cn3nc(C(F)(F)F)cc3Cl)cc(=O)n12 [compound 43, 7-[[5-chloro-3-(trifluoromethyl)pyrazol-1-yl]methyl]-N-ethyl-5-oxo-2-(trifluoromethyl)thiazolo[3,2-a]pyrimidine-3-carboxamide] |
| 0.685 | CCNC(=O)c1c(C(F)(F)F)sc2nc(Cn3nc(Cl)cc3C(F)(F)F)cc(=O)n12 [compound 44, 7-[[3-chloro-5-(trifluoromethyl)pyrazol-1-yl]methyl]-N-ethyl-5-oxo-2-(trifluoromethyl)thiazolo[3,2-a]pyrimidine-3-carboxamide] |
| 1.25 | CCNC(=O)c1c(C(F)(F)F)sc2nc(Cn3nc(C(F)(F)F)cc3C)cc(=O)n12 [compound 45, N-ethyl-7-[[5-methyl-3-(trifluoromethyl)pyrazol-1-yl]methyl]-5-oxo-2-(trifluoromethyl)thiazolo[3,2-a]pyrimidine-3-carboxamide] |
| 7.04 | CCNC(=O)c1c(C(F)(F)F)sc2nc(Cn3nc(C)cc3C(F)(F)F)cc(=O)n12 [compound 46, N-ethyl-7-[[3-methyl-5-(trifluoromethyl)pyrazol-1-yl]methyl]-5-oxo-2-(trifluoromethyl)thiazolo[3,2-a]pyrimidine-3-carboxamide] |
